# US11542240B2, “STK19 inhibitors for treatment of cancer” (TRUSTEES OF BOSTON UNIVERSITY, priority 2018, dated 2023)
# Where two headings read alike, the source gives them in different places.
# Assays:
# Assay in all cases: biochemical
# Format in all cases: binding
# [1] = biological target: panel of 468 diverse kinases (Homo sapiens, UniProt Q9UHD2); conditions: TBK1; 1000 nM; read-out: Percent Control
# [2] = biological target: panel of 468 diverse kinases (Homo sapiens, UniProt P36888, N841I); conditions: FLT3(N841I); 1000 nM; read-out: Percent Control
# [3] = biological target: panel of 468 diverse kinases (Homo sapiens, UniProt P36897); conditions: TGFBR1; 1000 nM; read-out: Percent Control
# Chain of panel of 468 diverse kinases (Homo sapiens, UniProt P36897) (P36897 34-503 limits assumed): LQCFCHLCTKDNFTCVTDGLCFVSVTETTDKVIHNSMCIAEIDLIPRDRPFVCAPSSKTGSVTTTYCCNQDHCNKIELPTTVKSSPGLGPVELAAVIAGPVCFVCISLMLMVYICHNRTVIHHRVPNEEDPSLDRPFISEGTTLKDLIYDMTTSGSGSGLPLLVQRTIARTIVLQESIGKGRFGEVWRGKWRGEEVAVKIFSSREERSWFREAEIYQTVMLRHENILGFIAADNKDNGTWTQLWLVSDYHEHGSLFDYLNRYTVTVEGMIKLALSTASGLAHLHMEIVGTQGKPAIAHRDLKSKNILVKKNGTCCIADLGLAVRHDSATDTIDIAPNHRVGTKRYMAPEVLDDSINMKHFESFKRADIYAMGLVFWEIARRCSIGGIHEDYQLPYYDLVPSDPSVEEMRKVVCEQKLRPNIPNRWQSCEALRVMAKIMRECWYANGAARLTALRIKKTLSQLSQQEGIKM
# [4] = biological target: panel of 468 diverse kinases (Homo sapiens, UniProt P42336); conditions: PIK3CA; 1000 nM; read-out: Percent Control
# [5] = biological target: panel of 468 diverse kinases (Homo sapiens, UniProt P36896); conditions: ACVR1B; 1000 nM; read-out: Percent Control
# Chain of panel of 468 diverse kinases (Homo sapiens, UniProt P36896) (P36896 24-505 limits assumed): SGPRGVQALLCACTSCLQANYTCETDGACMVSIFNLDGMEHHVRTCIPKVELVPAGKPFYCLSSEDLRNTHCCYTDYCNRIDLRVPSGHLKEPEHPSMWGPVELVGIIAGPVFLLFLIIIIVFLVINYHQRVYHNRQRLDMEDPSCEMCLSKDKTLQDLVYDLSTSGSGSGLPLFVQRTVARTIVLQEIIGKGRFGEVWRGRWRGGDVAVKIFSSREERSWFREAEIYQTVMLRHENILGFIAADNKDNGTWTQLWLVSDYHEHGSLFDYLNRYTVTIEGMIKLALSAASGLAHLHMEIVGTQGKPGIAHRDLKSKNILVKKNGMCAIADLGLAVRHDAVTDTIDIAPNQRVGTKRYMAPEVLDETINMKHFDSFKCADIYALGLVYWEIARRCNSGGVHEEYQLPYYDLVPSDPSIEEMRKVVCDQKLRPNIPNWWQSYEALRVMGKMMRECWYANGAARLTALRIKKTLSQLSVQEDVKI
# [6] = biological target: panel of 468 diverse kinases (Homo sapiens, UniProt Q52WX2); conditions: SBK1; 1000 nM; read-out: Percent Control
# [7] = biological target: panel of 468 diverse kinases (Homo sapiens, UniProt O94806); conditions: PRKD3; 1000 nM; read-out: Percent Control
# [8] = biological target: panel of 468 diverse kinases (Homo sapiens, UniProt Q13627); conditions: DYRKIV; 1000 nM; read-out: Percent Control
# [9] = biological target: panel of 468 diverse kinases (Homo sapiens, UniProt P22455); conditions: FGFR4; 1000 nM; read-out: Percent Control
# Chain of panel of 468 diverse kinases (Homo sapiens, UniProt P22455) (P22455 22-802 limits assumed): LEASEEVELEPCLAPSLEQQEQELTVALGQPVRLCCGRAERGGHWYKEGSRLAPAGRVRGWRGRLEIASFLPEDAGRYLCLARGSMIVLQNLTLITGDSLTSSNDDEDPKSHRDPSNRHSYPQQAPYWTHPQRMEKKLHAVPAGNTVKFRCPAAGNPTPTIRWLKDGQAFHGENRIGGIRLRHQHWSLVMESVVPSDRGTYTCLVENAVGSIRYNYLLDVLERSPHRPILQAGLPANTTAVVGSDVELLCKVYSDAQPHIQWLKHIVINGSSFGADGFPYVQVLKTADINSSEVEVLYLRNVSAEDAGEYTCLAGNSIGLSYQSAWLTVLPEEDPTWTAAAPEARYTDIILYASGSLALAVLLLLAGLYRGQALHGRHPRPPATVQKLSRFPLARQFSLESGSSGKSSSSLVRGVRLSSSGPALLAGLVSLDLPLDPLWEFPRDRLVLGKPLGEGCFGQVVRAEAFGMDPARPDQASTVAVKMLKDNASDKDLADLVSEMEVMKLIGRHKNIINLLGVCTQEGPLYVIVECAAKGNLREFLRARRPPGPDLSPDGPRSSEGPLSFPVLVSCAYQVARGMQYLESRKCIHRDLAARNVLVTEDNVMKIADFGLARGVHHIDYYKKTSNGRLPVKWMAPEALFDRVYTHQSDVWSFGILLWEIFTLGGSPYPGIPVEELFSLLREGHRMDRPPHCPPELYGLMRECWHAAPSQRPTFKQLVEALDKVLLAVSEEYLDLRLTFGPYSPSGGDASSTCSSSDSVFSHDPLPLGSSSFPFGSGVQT
# [10] = biological target: panel of 468 diverse kinases (Homo sapiens, UniProt Q9UKI8); conditions: TLK1; 1000 nM; read-out: Percent Control
# [11] = biological target: panel of 468 diverse kinases (Homo sapiens, UniProt O14976); conditions: GAK; 1000 nM; read-out: Percent Control
# [12] = biological target: panel of 468 diverse kinases (Homo sapiens, UniProt P00519, E255K); conditions: ABL1(E255K)-phosphorylated; 1000 nM; read-out: Percent Control
# [13] = biological target: panel of 468 diverse kinases (Homo sapiens, UniProt P45983); conditions: JNK1; 1000 nM; read-out: Percent Control
# [14] = biological target: panel of 468 diverse kinases (Homo sapiens, UniProt Q12851); conditions: MAP4K2; 1000 nM; read-out: Percent Control
# [15] = biological target: panel of 468 diverse kinases (Homo sapiens, UniProt P07333); conditions: 1000 nM, read-out: Percent Control
# Chain of panel of 468 diverse kinases (Homo sapiens, UniProt P07333) (P07333 20-972 limits assumed): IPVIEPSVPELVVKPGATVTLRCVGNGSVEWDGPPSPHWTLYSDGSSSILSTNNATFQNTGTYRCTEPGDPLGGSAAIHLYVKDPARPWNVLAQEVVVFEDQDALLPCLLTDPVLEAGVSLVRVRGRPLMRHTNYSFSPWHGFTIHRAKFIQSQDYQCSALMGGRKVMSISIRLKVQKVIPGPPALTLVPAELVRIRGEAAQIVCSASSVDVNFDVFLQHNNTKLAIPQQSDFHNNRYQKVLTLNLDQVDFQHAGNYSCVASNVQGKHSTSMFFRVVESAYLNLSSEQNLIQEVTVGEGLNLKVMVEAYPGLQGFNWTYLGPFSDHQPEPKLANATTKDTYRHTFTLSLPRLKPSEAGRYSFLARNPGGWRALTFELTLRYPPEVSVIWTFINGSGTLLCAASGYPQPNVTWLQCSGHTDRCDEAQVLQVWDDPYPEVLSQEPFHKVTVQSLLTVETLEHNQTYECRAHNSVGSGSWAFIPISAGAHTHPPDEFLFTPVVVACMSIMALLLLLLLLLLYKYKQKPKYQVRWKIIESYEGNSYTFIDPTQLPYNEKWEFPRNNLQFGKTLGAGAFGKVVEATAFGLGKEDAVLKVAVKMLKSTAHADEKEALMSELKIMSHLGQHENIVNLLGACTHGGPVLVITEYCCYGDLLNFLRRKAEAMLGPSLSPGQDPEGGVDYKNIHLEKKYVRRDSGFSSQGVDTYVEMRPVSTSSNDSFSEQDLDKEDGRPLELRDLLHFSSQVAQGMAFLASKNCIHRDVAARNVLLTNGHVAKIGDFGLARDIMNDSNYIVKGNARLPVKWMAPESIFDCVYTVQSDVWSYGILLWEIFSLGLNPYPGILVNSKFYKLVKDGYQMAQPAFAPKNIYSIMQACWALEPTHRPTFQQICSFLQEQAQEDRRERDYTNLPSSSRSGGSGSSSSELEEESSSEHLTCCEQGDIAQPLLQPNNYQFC
# [16] = biological target: panel of 468 diverse kinases (Homo sapiens, UniProt P49336); conditions: CDK8; 1000 nM; read-out: Percent Control
# [17] = biological target: panel of 468 diverse kinases (Homo sapiens, UniProt Q13546); conditions: RIPK1; 1000 nM; read-out: Percent Control
# [18] = biological target: panel of 468 diverse kinases (Homo sapiens, UniProt P10721, A829P); conditions: KIT(A829P); 1000 nM; read-out: Percent Control
# Chain of panel of 468 diverse kinases (Homo sapiens, UniProt P10721, A829P) (P10721 26-976 A829P limits assumed): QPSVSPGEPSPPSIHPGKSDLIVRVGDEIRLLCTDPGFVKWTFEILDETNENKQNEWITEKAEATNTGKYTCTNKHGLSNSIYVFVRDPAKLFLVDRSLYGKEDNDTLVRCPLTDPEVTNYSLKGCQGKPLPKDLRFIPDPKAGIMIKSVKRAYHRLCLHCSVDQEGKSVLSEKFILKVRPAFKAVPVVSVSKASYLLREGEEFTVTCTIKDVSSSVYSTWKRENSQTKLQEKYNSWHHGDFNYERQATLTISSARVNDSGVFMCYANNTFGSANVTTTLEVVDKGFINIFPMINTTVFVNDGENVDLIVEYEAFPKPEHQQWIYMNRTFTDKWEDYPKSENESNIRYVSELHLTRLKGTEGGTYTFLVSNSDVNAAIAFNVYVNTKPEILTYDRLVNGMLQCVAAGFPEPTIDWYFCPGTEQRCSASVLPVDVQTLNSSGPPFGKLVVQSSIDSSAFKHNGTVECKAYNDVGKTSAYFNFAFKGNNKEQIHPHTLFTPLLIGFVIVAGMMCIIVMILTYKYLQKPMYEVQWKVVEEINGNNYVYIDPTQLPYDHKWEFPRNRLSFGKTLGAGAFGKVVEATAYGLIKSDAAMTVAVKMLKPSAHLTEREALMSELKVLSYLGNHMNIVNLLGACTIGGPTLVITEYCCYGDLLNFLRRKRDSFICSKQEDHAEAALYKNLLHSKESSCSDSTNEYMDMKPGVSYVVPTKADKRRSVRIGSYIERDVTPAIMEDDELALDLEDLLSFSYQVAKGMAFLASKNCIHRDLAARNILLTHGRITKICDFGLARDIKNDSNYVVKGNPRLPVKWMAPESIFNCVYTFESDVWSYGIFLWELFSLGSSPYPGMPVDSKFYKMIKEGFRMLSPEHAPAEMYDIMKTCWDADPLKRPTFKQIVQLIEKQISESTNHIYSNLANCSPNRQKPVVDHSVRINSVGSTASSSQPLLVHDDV
# [19] = biological target: panel of 468 diverse kinases (Homo sapiens, UniProt Q9UKE5); conditions: TNIK; 1000 nM; read-out: Percent Control
# [20] = biological target: panel of 468 diverse kinases (Homo sapiens, UniProt P36888, R834Q); conditions: FLT3(R834Q); 1000 nM; read-out: Percent Control
# [21] = biological target: panel of 468 diverse kinases (Homo sapiens, UniProt P20794); conditions: MAK; 1000 nM; read-out: Percent Control
# [22] = biological target: panel of 468 diverse kinases (Homo sapiens, UniProt Q9UQB9); conditions: AURKC; 1000 nM; read-out: Percent Control
# [23] = biological target: panel of 468 diverse kinases (Homo sapiens, UniProt Q02779); conditions: MLK2; 1000 nM; read-out: Percent Control
# [24] = biological target: panel of 468 diverse kinases (Homo sapiens, UniProt P51813); conditions: BMX; 1000 nM; read-out: Percent Control
# [25] = biological target: panel of 468 diverse kinases (Homo sapiens, UniProt P27448); conditions: MARK3; 1000 nM; read-out: Percent Control
# [26] = biological target: panel of 468 diverse kinases (Homo sapiens, UniProt P51451); conditions: BLK; 1000 nM; read-out: Percent Control
# Chain of panel of 468 diverse kinases (Homo sapiens, UniProt P51451) (P51451 2-505 limits assumed): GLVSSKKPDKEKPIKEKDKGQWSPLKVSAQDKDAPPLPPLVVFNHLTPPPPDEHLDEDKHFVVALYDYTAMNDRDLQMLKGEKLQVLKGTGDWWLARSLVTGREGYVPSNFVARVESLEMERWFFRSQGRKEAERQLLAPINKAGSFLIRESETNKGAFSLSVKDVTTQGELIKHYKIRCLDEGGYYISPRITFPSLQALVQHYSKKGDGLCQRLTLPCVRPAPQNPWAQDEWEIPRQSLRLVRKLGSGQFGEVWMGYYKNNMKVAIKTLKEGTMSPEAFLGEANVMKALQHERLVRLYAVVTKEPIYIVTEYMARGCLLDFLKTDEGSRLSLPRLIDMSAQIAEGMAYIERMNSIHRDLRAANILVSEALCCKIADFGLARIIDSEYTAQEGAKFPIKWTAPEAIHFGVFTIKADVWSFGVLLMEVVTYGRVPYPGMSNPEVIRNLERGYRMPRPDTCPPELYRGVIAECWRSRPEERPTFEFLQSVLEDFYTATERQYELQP
# [27] = biological target: panel of 468 diverse kinases (Homo sapiens, UniProt Q9BQI3); conditions: EIF2AK1; 1000 nM; read-out: Percent Control
# [28] = biological target: panel of 468 diverse kinases (Homo sapiens, UniProt O75676); conditions: 1000 nM, read-out: Percent Control
# [29] = biological target: panel of 468 diverse kinases (Homo sapiens, UniProt Q9BWU1); conditions: CDK11; 1000 nM; read-out: Percent Control
# [30] = biological target: panel of 468 diverse kinases (Homo sapiens, UniProt Q9BZL6); conditions: PRKD2; 1000 nM; read-out: Percent Control
# [31] = biological target: panel of 468 diverse kinases (Homo sapiens, UniProt Q06187); conditions: BTK; 1000 nM; read-out: Percent Control
# Chain of panel of 468 diverse kinases (Homo sapiens, UniProt Q06187) (Q06187 2-659 limits assumed): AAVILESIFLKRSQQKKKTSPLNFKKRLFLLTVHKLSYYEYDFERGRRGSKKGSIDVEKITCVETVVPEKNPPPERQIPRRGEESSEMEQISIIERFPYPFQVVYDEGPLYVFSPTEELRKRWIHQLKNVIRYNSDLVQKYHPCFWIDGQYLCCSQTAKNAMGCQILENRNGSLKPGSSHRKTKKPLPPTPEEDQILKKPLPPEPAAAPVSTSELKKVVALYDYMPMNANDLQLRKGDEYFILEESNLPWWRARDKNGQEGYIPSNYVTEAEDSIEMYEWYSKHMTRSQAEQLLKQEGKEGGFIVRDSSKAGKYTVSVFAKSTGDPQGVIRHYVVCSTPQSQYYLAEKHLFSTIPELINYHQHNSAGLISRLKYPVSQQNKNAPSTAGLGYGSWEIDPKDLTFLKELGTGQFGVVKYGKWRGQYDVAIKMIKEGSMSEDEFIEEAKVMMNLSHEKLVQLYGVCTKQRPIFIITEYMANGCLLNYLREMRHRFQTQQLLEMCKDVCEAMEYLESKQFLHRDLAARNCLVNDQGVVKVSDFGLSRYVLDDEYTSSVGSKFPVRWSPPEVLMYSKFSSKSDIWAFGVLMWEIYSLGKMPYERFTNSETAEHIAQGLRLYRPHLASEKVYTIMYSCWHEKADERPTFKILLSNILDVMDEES
smiles,measurement,setting,value
COc1cc2nc(NC3CC3)nc(NC3CCN(C(C)C)CC3)c2cc1OC [Formula IV],remaining activity at 1 µM,[1],98%
same,remaining activity at 1 µM,[2],63%
same,remaining activity at 1 µM,[3],82%
same,remaining activity at 1 µM,[4],97%
same,remaining activity at 1 µM,[5],94%
same,remaining activity at 1 µM,[6],64%
same,remaining activity at 1 µM,[7],91%
same,remaining activity at 1 µM,[8],60%
same,remaining activity at 1 µM,[9],100%
same,remaining activity at 1 µM,[10],90%
same,remaining activity at 1 µM,[11],92%
same,remaining activity at 1 µM,[12],89%
same,remaining activity at 1 µM,[13],52%
same,remaining activity at 1 µM,[14],87%
same,remaining activity at 1 µM,[15]; CSF1R-autoinhibited,54%
same,remaining activity at 1 µM,[15]; CSF1R,91%
same,remaining activity at 1 µM,[16],96%
same,remaining activity at 1 µM,[17],87%
same,remaining activity at 1 µM,[18],78%
same,remaining activity at 1 µM,[19],98%
same,remaining activity at 1 µM,[20],40%
same,remaining activity at 1 µM,[21],88%
same,remaining activity at 1 µM,[22],100%
same,remaining activity at 1 µM,[23],95%
same,remaining activity at 1 µM,[24],100%
same,remaining activity at 1 µM,[25],100%
same,remaining activity at 1 µM,[26],100%
same,remaining activity at 1 µM,[27],73%
same,remaining activity at 1 µM,[28]; RPS6KA4(Kin.Dom.1-N-terminal),90%
same,remaining activity at 1 µM,[28]; RPS6KA4(Kin.Dom.2-C-terminal),46%
same,remaining activity at 1 µM,[29],82%
same,remaining activity at 1 µM,[30],64%
same,remaining activity at 1 µM,[31],89%
